The text below walks through data of ChEMBL document CHEMBL2073883, “Interaction of docetaxel ("Taxotere") with human P-glycoprotein” (Jpn J Cancer Res, 1999).

Molecules are shown by their SMILES.

In the data set the target is ATP-dependent translocase ABCB1 (Homo sapiens, UniProt P08183). The data set can be described thus: TP_TRANSPORTER: transepithelial transport (basal to apical) in MDR1-expressing LLC-PK1 cells. To be noted: pig. It is filed as functional, cell-based.
ATP-dependent translocase ABCB1, sequence (P08183 whole entry): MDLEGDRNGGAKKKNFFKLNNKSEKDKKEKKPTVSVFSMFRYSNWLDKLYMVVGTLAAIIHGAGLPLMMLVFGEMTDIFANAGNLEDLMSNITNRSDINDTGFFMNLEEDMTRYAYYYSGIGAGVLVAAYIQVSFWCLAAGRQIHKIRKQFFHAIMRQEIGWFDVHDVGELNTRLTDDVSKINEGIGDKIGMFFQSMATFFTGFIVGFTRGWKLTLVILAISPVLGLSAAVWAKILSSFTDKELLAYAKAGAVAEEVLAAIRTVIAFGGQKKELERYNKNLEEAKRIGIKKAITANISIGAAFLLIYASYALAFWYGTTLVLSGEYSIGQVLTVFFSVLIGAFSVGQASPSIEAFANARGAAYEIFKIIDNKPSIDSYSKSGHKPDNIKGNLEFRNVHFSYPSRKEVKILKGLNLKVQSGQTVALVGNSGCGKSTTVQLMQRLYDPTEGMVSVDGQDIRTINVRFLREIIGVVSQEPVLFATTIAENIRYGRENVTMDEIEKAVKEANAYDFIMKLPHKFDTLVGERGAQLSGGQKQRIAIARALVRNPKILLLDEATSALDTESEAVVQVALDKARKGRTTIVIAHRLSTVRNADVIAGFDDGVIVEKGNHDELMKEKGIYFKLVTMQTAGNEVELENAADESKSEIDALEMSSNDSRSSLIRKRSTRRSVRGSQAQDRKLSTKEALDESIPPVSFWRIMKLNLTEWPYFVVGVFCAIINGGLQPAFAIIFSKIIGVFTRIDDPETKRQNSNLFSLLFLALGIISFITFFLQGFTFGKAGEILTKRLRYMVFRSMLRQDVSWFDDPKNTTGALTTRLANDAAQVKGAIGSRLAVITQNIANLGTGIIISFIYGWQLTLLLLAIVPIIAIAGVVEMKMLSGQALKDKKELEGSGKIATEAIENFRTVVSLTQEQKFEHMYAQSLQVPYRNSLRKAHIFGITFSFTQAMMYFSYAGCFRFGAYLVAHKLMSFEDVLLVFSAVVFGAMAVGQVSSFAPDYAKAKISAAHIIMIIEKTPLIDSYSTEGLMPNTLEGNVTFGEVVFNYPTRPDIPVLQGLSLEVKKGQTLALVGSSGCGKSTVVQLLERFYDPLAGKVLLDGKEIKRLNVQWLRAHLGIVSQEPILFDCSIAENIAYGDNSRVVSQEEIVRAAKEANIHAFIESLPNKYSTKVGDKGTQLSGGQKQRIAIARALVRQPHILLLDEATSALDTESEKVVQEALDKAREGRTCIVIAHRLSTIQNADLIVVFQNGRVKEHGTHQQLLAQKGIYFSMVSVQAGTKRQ

As for `CC(=O)O[C@@]12CO[C@@H]1C[C@H](O)[C@@]1(C)C(=O)[C@H](O)C3=C(C)[C@@H](OC(=O)[C@H](O)[C@@H](NC(=O)OC(C)(C)C)c4ccccc4)C[C@@](O)([C@@H](OC(=O)c4ccccc4)[C@H]21)C3(C)C.O.O.O` [DOCETAXEL], the Activity entry was “substrate [+]”.
